# Measured values reported in US11076594B2, “Pyrazolone compound or salt thereof, preparation method therefor, herbicide composition and use thereof” (QINGDAO KINGAGROOT CHEMICAL COMPOUNDS CO., LTD., priority 2015, dated 2021).
# Tests used:
# Assay type in all cases: in vivo
# Indian mallow = experiment: weed control effect in post-emergence stage (Table 1); design: key: Level 10: completely dead; Level 9: above 95% growth control rate; Level 8: above 90% growth control rate; Level 7: above 80% growth control rate; Level 6: above 70% growth control rate; Level 5: above 60% growth control rate; Level 4: above 50% growth control rate; Level 3: above 20% growth control rate; Level 2: 5%-20% growth control rate; Level 1: below 5% growth control rate; conditions: post-emergence spray at 4-5 leaf stage, 250 g/ha active ingredient with 450 kg/ha water, rated after 3 weeks in greenhouse
# Method in brief: (§1)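 Seeds were sown in pots, covered with 0.5-2 cm soil and grown in a greenhouse. At the 4-5 leaf stage, plants were sprayed with the test compound formulated in acetone, Tween 80 and water. Fresh weight control was rated after 3 weeks.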
# bidens bipinnata = experiment: as above; design: key: Level 10: completely dead; Level 9: above 95% growth control rate; Level 8: above 90% growth control rate; Level 7: above 80% growth control rate; Level 6: above 70% growth control rate; Level 5: above 60% growth control rate; Level 4: above 50% growth control rate; Level 3: above 20% growth control rate; Level 2: 5%-20% growth control rate; Level 1: below 5% growth control rate; conditions: post-emergence spray at 4-5 leaf stage, 250 g/ha active ingredient with 450 kg/ha water, rated after 3 weeks in greenhouse
# Method in brief: as §1
# crab grass = experiment: as above; design: key: Level 10: completely dead; Level 9: above 95% growth control rate; Level 8: above 90% growth control rate; Level 7: above 80% growth control rate; Level 6: above 70% growth control rate; Level 5: above 60% growth control rate; Level 4: above 50% growth control rate; Level 3: above 20% growth control rate; Level 2: 5%-20% growth control rate; Level 1: below 5% growth control rate; conditions: post-emergence spray at 4-5 leaf stage, 250 g/ha active ingredient with 450 kg/ha water, rated after 3 weeks in greenhouse
# Method in brief: as §1
# echinochloa = experiment: as above; design: key: Level 10: completely dead; Level 9: above 95% growth control rate; Level 8: above 90% growth control rate; Level 7: above 80% growth control rate; Level 6: above 70% growth control rate; Level 5: above 60% growth control rate; Level 4: above 50% growth control rate; Level 3: above 20% growth control rate; Level 2: 5%-20% growth control rate; Level 1: below 5% growth control rate; conditions: post-emergence spray at 4-5 leaf stage, 250 g/ha active ingredient with 450 kg/ha water, rated after 3 weeks in greenhouse
# Method in brief: as §1
# foxtail = experiment: as above; design: key: Level 10: completely dead; Level 9: above 95% growth control rate; Level 8: above 90% growth control rate; Level 7: above 80% growth control rate; Level 6: above 70% growth control rate; Level 5: above 60% growth control rate; Level 4: above 50% growth control rate; Level 3: above 20% growth control rate; Level 2: 5%-20% growth control rate; Level 1: below 5% growth control rate; conditions: post-emergence spray at 4-5 leaf stage, 250 g/ha active ingredient with 450 kg/ha water, rated after 3 weeks in greenhouse
# Method in brief: as §1
# rorippa indica = experiment: as above; design: key: Level 10: completely dead; Level 9: above 95% growth control rate; Level 8: above 90% growth control rate; Level 7: above 80% growth control rate; Level 6: above 70% growth control rate; Level 5: above 60% growth control rate; Level 4: above 50% growth control rate; Level 3: above 20% growth control rate; Level 2: 5%-20% growth control rate; Level 1: below 5% growth control rate; conditions: post-emergence spray at 4-5 leaf stage, 250 g/ha active ingredient with 450 kg/ha water, rated after 3 weeks in greenhouse
# Method in brief: as §1
# wheat [1] = experiment: post-emergence stage experiment, crop (Table 1); conditions: post-emergence spray at 4-5 leaf stage, 250 g/ha active ingredient with 450 kg/ha water, rated after 3 weeks in greenhouse
# Method in brief: as §1
# rice = experiment: post-emergence stage experiment, crop (Table 1); conditions: post-emergence spray at 4-5 leaf stage, 250 g/ha active ingredient with 450 kg/ha water, rated after 3 weeks in greenhouse
# Method in brief: as §1
# alopecurus japonicas = experiment: wheat field resistant weed control, greenhouse spray at 4 leaf stage; conditions: sprayed at 4 leaf stage, 4 weeks after treatment, resistant to ALS and ACCase inhibitor herbicides
# Experimental: (§2) The activity level standard of harmful plant destruction (i.e. growth control rate) is as follows:
# (§3) The above described growth control rate is fresh weight control rate.
# (§4) The seeds of alopecurus japonicas, flixweed, shepherd's purse, corn gromwell, chickweed, beckmannia syzigachne, and annual ryegrass and wheat seeds were put into a plastic pot loaded with soil, and then covered with 0.5-2 cm soil, the seeds were allowed to grow in good greenhouse environment. The test plants were treated at 4 leaf stage 2-3 weeks after sowing. The test compounds of the present invention were dissolved in acetone respectively, then added with methyl oleate emulsion and diluted by certain amount of water to certain concentration. The solution was sprayed to the plant with a sprayer. Then the plants were cultured for 4 weeks in greenhouse.
# wheat [2] = experiment: wheat field test, crop selectivity, greenhouse spray at 4 leaf stage; conditions: sprayed at 4 leaf stage, 4 weeks after treatment
# Experimental: as §2, §3, §4
# corn = experiment: post-emergence stage experiment, crop (Table 1); conditions: post-emergence spray at 4-5 leaf stage, 250 g/ha active ingredient with 450 kg/ha water, rated after 3 weeks in greenhouse
# Method in brief: as §1
"effect on crop, Wheat (level) (wheat [1])","effect on crop, Corn (level) (corn)",SMILES,"weed control effect, Indian mallow (level) (Indian mallow)","weed control effect, Bidens bipinnata (level) (bidens bipinnata)","weed control effect, Crab grass (level) (crab grass)","weed control effect, Echinochloa (level) (echinochloa)","weed control effect, Green foxtail (level) (foxtail)","weed control effect, Rorippa indica (level) (rorippa indica)","effect on crop, Rice (level) (rice)",Alopecurus japonicas weed controlling effect (activity level) (alopecurus japonicas; 1 g/mu),Alopecurus japonicas weed controlling effect (activity level) (alopecurus japonicas; 2 g/mu),Alopecurus japonicas weed controlling effect (activity level) (alopecurus japonicas; 4 g/mu),Alopecurus japonicas weed controlling effect (activity level) (alopecurus japonicas; 8 g/mu),"Wheat (activity level, crop damage) (wheat [2]; 2 g/mu)","Wheat (activity level, crop damage) (wheat [2]; 4 g/mu)","Wheat (activity level, crop damage) (wheat [2]; 8 g/mu)","Wheat (activity level, crop damage) (wheat [2]; 16 g/mu)","Wheat (activity level, crop damage) (wheat [2]; 32 g/mu)"
0,,CCS(=O)(=O)Oc1c(C(=O)c2ccc(C(F)(F)F)c(N3CCCC3=O)c2Cl)c(C)nn1C [Compound 019],10,9 (Level 9: above 95% growth control rate),9 (Level 9: above 95% growth control rate),9 (Level 9: above 95% growth control rate),10,9 (Level 9: above 95% growth control rate),7 (Level 7: above 80% growth control rate),1 (Level 1: below 5% growth control rate),4 (Level 4: above 50% growth control rate),6 (Level 6: above 70% growth control rate),6 (Level 6: above 70% growth control rate),0,0,2 (Level 2: 5%-20% growth control rate),3 (Level 3: above 20% growth control rate),4 (Level 4: above 50% growth control rate)
0,,COC(=O)Oc1c(C(=O)c2ccc(C(F)(F)F)c(N3CCCC3=O)c2Cl)c(C)nn1C [Compound 020],10,9 (Level 9: above 95% growth control rate),10,10,10,9 (Level 9: above 95% growth control rate),8 (Level 8: above 90% growth control rate),1 (Level 1: below 5% growth control rate),6 (Level 6: above 70% growth control rate),6 (Level 6: above 70% growth control rate),8 (Level 8: above 90% growth control rate),1 (Level 1: below 5% growth control rate),3 (Level 3: above 20% growth control rate),3 (Level 3: above 20% growth control rate),4 (Level 4: above 50% growth control rate),4 (Level 4: above 50% growth control rate)
0,0,CCn1nc(C2CC2)c(C(=O)c2ccc(C(F)(F)F)c(-n3cc(C)cn3)c2Cl)c1O [Compound 144],10,10,2 (Level 2: 5%-20% growth control rate),10,9 (Level 9: above 95% growth control rate),2 (Level 2: 5%-20% growth control rate),8 (Level 8: above 90% growth control rate),,,,,,,,,

SMILES,"effect on crop, Wheat (level) (wheat [1])","effect on crop, Corn (level) (corn)","weed control effect, Indian mallow (level) (Indian mallow)","weed control effect, Bidens bipinnata (level) (bidens bipinnata)","weed control effect, Crab grass (level) (crab grass)","weed control effect, Echinochloa (level) (echinochloa)","weed control effect, Green foxtail (level) (foxtail)","weed control effect, Rorippa indica (level) (rorippa indica)","effect on crop, Rice (level) (rice)",Alopecurus japonicas weed controlling effect (activity level) (alopecurus japonicas; 1 g/mu),Alopecurus japonicas weed controlling effect (activity level) (alopecurus japonicas; 2 g/mu),Alopecurus japonicas weed controlling effect (activity level) (alopecurus japonicas; 4 g/mu),Alopecurus japonicas weed controlling effect (activity level) (alopecurus japonicas; 8 g/mu),"Wheat (activity level, crop damage) (wheat [2]; 2 g/mu)","Wheat (activity level, crop damage) (wheat [2]; 4 g/mu)","Wheat (activity level, crop damage) (wheat [2]; 8 g/mu)","Wheat (activity level, crop damage) (wheat [2]; 16 g/mu)","Wheat (activity level, crop damage) (wheat [2]; 32 g/mu)"
CCn1nc(C2CC2)c(C(=O)c2ccc(C(F)(F)F)c(-n3cc(C)cn3)c2Cl)c1OC(=O)c1cn(C)nc1C [Compound 145],1 (Level 1: below 5% growth control rate),0,4 (Level 4: above 50% growth control rate),10,4 (Level 4: above 50% growth control rate),10,8 (Level 8: above 90% growth control rate),1 (Level 1: below 5% growth control rate),9 (Level 9: above 95% growth control rate),,,,,,,,,
